Data on one compound can be found in US9856511B2, “Protease deubiquitinating inhibitor screening” (priority 2011, dated 2018).

Assay [1] deals with T1, human 20S proteasome (Homo sapiens, UniProt P28072+P28074+Q99436).
T1 construct: purchased Boston Biochem E-360
Kind of assay: In vitro proteasome activity assay (Suc-LLVY-AMC, Z-LLE-AMC, Boc-LRR-AMC). The format is biochemical. Particulars: molar excess of b-AP15. As to the method: 20S CP contains the β1, β2 and […] proteolytic subunits responsible for caspase-like, trypsin-like and chymotrypsin-like activities of the proteasome, respectively (18).
In vitro proteasome activity assays were performed in black 96-well microtiter plates using human 20S proteasome (Boston Biochem) in reaction buffer (25 mM Hepes, 0.5 mM EDTA, 0.03% SDS) with Suc-LLVY-AMC, Z-LLE-AMC or Boc-LRRAMC used as substrates for proteasome activity. De-ubiquitinase activity assays were performed with human 19S RP (Boston Biochem) with ubiquitin-AMC as substrate. For xenograft studies a 100-μl-cell suspension containing 1×10^6 FaDu head-neck or 2×10^5 Lewis Lung Carcinoma (LLC) cells were injected subcutaneously into the flank of SCID or C57BL/6J mice. Upon tumor take mice were randomized into control or treatment groups and administered with 5 mg kg^−1 b-AP15 or vehicle. In vivo levels of apoptosis and cell death were determined from the detection of caspase cleaved and total levels of cytokeratin-18 in plasma using M30 Apoptosense® and M65 ELISA®s assays (Peviva). […]
In vitro proteasome activity assays using 20S CP (2 nM) (Boston Biochem) were performed at 37° C. in 100-μl reaction buffer (25 mM Hepes, 0.5 mM EDTA, 0.03% SDS). […] Fluorescence was monitored using Wallac Multilabel counter or Tecan Infinite M1000 equipped with 360 nm excitation and 460 nm emission filters. […]

The test system of assay [2] is FaDu head and neck carcinoma. As to the kind of experiment: FaDu head and neck carcinoma xenograft in SCID mice. The format is in vivo. The settings on record: plasma. On the procedure:
(§1) In order to investigate the effect of b-AP15 on tumor growth in vivo, the compound was administered to mice bearing either a human tumor or mouse xenografts. FaDu head and neck carcinoma were chosen as a SCID mouse xenograft both as a model for a p53mut tumor and since this model is suitable for studies using circulating cell death biomarkers (30). Significant inhibition of FaDu tumor growth was observed following daily treatment with b-AP15 (treated/control tumor volume, T/C=0.4, p=<0.001). Similarly b-AP15 (day on/2 day off schedule) inhibited tumor growth in C57BL/6J mice bearing lung carcinomas (T/C=0.16, p=<0.01). […] To examine whether b-AP15 promotes tumor cell death in vivo, plasma levels of cytokeratin-18 (CK18) were analyzed. […] To investigate the ability of b-AP15 to inhibit proteasome deubiquitination in vivo, accumulation of poly-ubiquitin conjugates was analyzed by means of antibodies specific for K48 linked polyubiquitin chains. Histological analysis of treated tumors confirmed the accumulation of poly-ubiquitin conjugates. […]
(§2) Animal experiments were conducted in full accordance with Swedish governmental statutory regulations on animal welfare under permission from local ethical committees. […] All mice were monitored and weighed daily. […] After injection, tumor growth was measured daily with calipers and the tumor volume calculated by the formula L=W^2=0.44. […]

Assay [3] concerns Lewis Lung Carcinoma (LLC). Kind of assay: Lewis Lung Carcinoma (LLC) syngenic tumors in C57BL/6J mice. The format is in vivo. The settings on record: 5 mg/kg i.p., day on/2 day off schedule; p=<0.01. As to the method: as §1, §2

As for `C=CC(=O)N1C/C(=C\c2ccc([N+](=O)[O-])cc2)C(=O)/C(=C/c2ccc([N+](=O)[O-])cc2)C1` [b-AP15], the “caspase-like, trypsin-like and chymotrypsin-like activities of the proteasome” value in assay [1] is on record as “do not show alteration”. The “levels of human CK18 derived from FaDu tumors in the circulation” value in assay [2] (total CK18, p=0.01) was “significant increase”. The “levels of caspase cleaved CK18 (CK18-Asp396) in circulation” value in assay [2] (compared with total levels) was “increased moderately”. For the same compound, the “treated/control tumor volume, T/C” value in assay [3] turned out to be 0.16.
